“Also recorded” adds a separate entry of the source.
Tests used:
Drosophila melanogaster = assay: Cocaine-induced startle response and seizure activity in the Drosophila model; format: in vivo
Procedure: The percent time out of 45 seconds that each fly spent moving following a 42 cm drop was measured. Male flies exposed to cocaine spent less time moving than flies exposed to untreated food (p=2.13×10^−12). […] Error bars represent standard error.
Drosophila provides an advantageous model system for studies on cocaine consumption. […] In addition, flies develop sensitization to repeated intermittent exposure to cocaine. Startle behavior and the prevalence of seizure activity was measured in male and female flies. Measurements were taken following acute consumption of solid food, solid food supplemented with cocaine, or solid food supplemented with cocaine and ibrutinib. Male flies exposed to cocaine spent less time moving after being subjected to a mechanical startle (FIG. 3A). This is likely due to the occurrence of cocaine-induced seizures, which were scored as stationary periods.

mice = settings: cited from earlier work

SMILES	prevalence of cocaine-induced seizures during startle assay, female flies (Drosophila melanogaster; female flies, cocaine and ibrutinib vs cocaine only, did not reach statistical significance)	percent time spent moving after mechanical startle (startle response) (Drosophila melanogaster; male and female flies, food with cocaine and ibrutinib vs cocaine only, 45 seconds after 42 cm drop, FIG. 3A)	prevalence of cocaine-induced seizures during startle assay, male flies (Drosophila melanogaster; male flies, cocaine and ibrutinib vs cocaine only, FIG. 3B)	binge drinking (mice)
C=CC(=O)N1CCC[C@@H](n2nc(-c3ccc(Oc4ccccc4)cc3)c3c(N)ncnc32)C1 [ibrutinib, (R)-1-(3-(4-amino-3-(4-phenoxyphenyl)-1H-pyrazolo[3,4-d]pyrimidin-1-yl)piperidin-1-yl)prop-2-en-1-one]	Fewer cocaine-induced seizures	increase in the percent of time spent moving; also recorded: spent more time moving than flies that only consumed cocaine	significant decrease in the prevalence of seizures	
CC1=C(O)C(=O)[C@@H]2O[C@@H]2C1=O [terreic acid]				reduced binge drinking in mice
